The record followed here is US20240350402A1, “TOPICAL DRUG TREATMENT TO PREVENT OR REDUCE CORNEAL SCARRING” (The Cleveland Clinic Foundation, priority 2021, published 2024).

Type in all cases: in vivo, rabbit
In data set [1] the test system is collagen type IV. In words: Alkali burn model: IHC collagen type IV intensity in anterior and posterior stroma (ImageJ). To be noted: one month. The protocol:
Worth, TX) and a 5 mm diameter circular Whatman No. 1 filter paper (Cat #1001-6508, Fisher Scientific) wetted with 100 μl of 1N NaOH solution. Following the alkali burn injury, the cornea was irrigated profusely with BSS. Each injured cornea also received one drop of ciprofloxacin (Alcon, Ft. Worth, TX, USA) ten minutes after surgery and four times a day for one week and at least 15 minutes apart from the study medications. […] Worth TX), at least 5 minutes apart, or 4) 50 μl of BSS. Multiplex immunohistochemistry (IHC) was performed using previously described methods^8 and primary antibodies (Table 7) confirmed by western blotting and IHC to recognize rabbit antigens or isotypic control antibodies (Thermo Fisher Scientific, Waltham, MA), and secondary fluorescent tagged antibodies (Table 7). The collagen type IV antibody (Cat. #AB769, Millipore, Temecula CA) was raised against purified human and bovine collagen type IV that had been affinity purified with human and bovine collagen type IV crosslinked to agarose and cross-absorbed by the manufacturer with human and bovine collagens type I, II, III, V and VI to eliminate cross-reactivity. This collagen type IV antibody was shown previously to bind rabbit collagen IV in IHC,^8,9 and recognizes the alpha-1/alpha-2 chains but not the alpha-3 to alpha-6 chains. The keratocan antibody is raised against peptide […]-OH (SEQ ID NO:1). This marker was used to identify keratocytes in situ. […] All corneas in each group had IHC for collagen type IV. Images from each cornea were converted to uniform 300 DPI, 875×568 pixel, files. […] The staining intensity within each box was determined with the analyze histogram function and the mean of three boxes was the intensity value in the anterior or posterior stroma for that cornea.

Data set [2] deals with α-smooth muscle actin (SMA) myofibroblast marker. As to the kind of experiment: DMR model: IHC for SMA and keratocan, area of SMA-positive posterior fibrosis (QuPath). The protocol: (§1) The rabbits had general anaesthesia with 30 mg/kg ketamine hydrochloride and 5 mg/kg xylazine by IM injection. In addition, topical proparacaine hydrochloride 1% (Alcon, Ft Worth, TX, USA) was applied to each eye prior to the surgery. One cornea selected at random in each group either had sham surgery without Descemetorhexis or an 8 mm diameter central Descemet's membrane-endothelial excision. The time point of one month after surgery was selected for the study because myofibroblasts and fibrosis in the posterior cornea was maximal at this time point in a prior time course Descemetorhexis study (Sampaio et al., 2021). Descemetorhexis was performed as described in the prior study (Sampaio et al., 2021). Briefly, a wire lid speculum was placed into one eye of each rabbit and an 8 mm diameter gentian violet circle was marked on the epithelial surface for reference. A limbal entry incision was created with a 1.6 mm blade (Bausch and Lomb, Rochester, NY, USA) and 0.3 ml Healon OVD (Abbott Medical Optics Inc. Santa Ana, CA, USA) was injected into the anterior chamber. A reversed Sinskey hook (Katena, Denville, New Jersey, USA) was placed into the anterior chamber and an 8 mm diameter disc of Descemet's membrane and endothelium was excised underlying the 8 mm area previously marked on the anterior corneal surface, without a subsequent endothelial corneal transplant. No removal of Descemet's membrane or endothelium was performed in unwounded sham surgery eyes. Remaining Healon OVD was removed with a Simcoe irrigation and aspiration cannula (Bausch & Lomb, Storz, Rochester, NY, USA) and the anterior chamber was filled with balanced salt solution (BSS). A single 10-0 nylon suture was placed at the incision site to prevent leakage from the anterior chamber. One drop of ciprofloxacin (Alcon, Ft. Worth, TX, USA) was applied to the corneas immediately after surgery and four times a day until the epithelium entry wound healed at approximately 2 days.
(§2) The oral solution was prepared with 5 ml distilled water+50 ml ora-plus (suspending vehicle—Perrigo, Dublin, Ireland)+45 ml Ora-sweet (flavored syrup vehicle—Perrigo).
At one month after surgery and treatment, an intravenous injection of 100 mg/kg Beuthanasia (Shering-Plough, Kenilworth, NJ) was given for euthanasia with the animals under general anaesthesia. Sharp Westcott scissors (Fairfield, CT, USA) and 0.12 forceps (Storz, St. Louis, MO) were used to remove the corneo-scleral rims of the sham unwounded and DMR eyes without touching the cornea. Each cornea was set in the center of a 24×24×5 mm mold (Fisher Scientific, Pittsburgh, PA, USA) and the mold was filled in liquid OCT compound (Sakura Finetek, Torrance, CA, USA). The molds and cornea-scleral rims were quick frozen on dry ice and stored at −80° C. until sections were cut.
Each OCT block was bisected in the exact center of the cornea, and 8 μm thick transverse sections were cut from the central cornea within the previous DMR injury or unwounded sham surgery corneas with a cryostat (HM 505M; Micron GmbH, Walldorf, Germany) and three sections per slide were placed on 25 mm×75 mm×1 mm Superfrost Plus microscope slides (Fisher Scientific, Pittsburgh, PA, USA). Slides were maintained at −20° C. until immunohistochemistry.
(§3) Duplex immunohistochemistry (IHC) was performed after masking of slides by a researcher not involved in the analysis using previously described methods (de Oliveira et al., 2021) using primary antibodies (Table 2) confirmed by western blotting and IHC to recognize rabbit antigens or isotypic control antibodies (ThermoFisher Scientific, Waltham, MA), and secondary fluorescent tagged antibodies (Table 3).
The area of the SMA-positive posterior fibrotic stroma was quantitated with the original groups masked to the analyzer by standardized photography with a 10× objective on a Leica DM6B upright microscope equipped with an automated stage and Leica 7000 T camera using the LAS X software (Leica Microsystems, GmbH, Wetzlar, Germany). […]

The test system of data set [3] is collagen type IV. As to the kind of experiment: DMR model: IHC collagen type IV intensity in posterior stroma (ImageJ). To be noted: one month. The protocol:
as §1, §2, §3
The AB769 (Millipore, Temecula CA) collagen type IV antibody used in this study was generated against purified human and bovine collagen type IV, affinity purified with human and bovine collagen type IV crosslinked to agarose and cross-absorbed by the manufacturer with human and bovine collagens type I, II, III, V and VI to eliminate cross-reactivity. […]
Collagen type IV intensity in immunohistochemistry images was quantitated in 0.75 W×0.5H rectangles of posterior stroma tangent to the posterior corneal surface using ImageJ on 7.62 cm wide×5.69 cm height and 300 DPI images generated using standardized microscopic illumination settings applied to all sections. The quantitation rectangles were positioned such that the posterior side of the rectangle was tangent to the posterior corneal surface just anterior to Descemet's membrane, if one was present, in the analysed specimens. […]

In data set [4] the test system is TGF beta-1. As to the kind of experiment: DMR model: IHC TGF beta-1 in posterior stroma. To be noted: topical and/or oral losartan, one month. The protocol: as §1, with “No removal of Descemet's membrane or endothelium was performed in unwounded sham surgery eyes. Remaining Healon OVD was removed with a Simcoe irrigation and aspiration cannula (Bausch & Lomb, Storz, Rochester, NY, USA) and the anterior chamber was filled with balanced salt solution (BSS). A single 10-0 nylon suture was placed at the incision site to prevent leakage from the anterior chamber. One drop of ciprofloxacin (Alcon, Ft. Worth, TX, USA) was applied to the corneas immediately after surgery and four times a day until the epithelium entry wound healed at approximately 2 days.” left out

Setting [5] is: topical losartan and oral losartan.

The structures appear in SMILES notation.

Turning to `CCCCc1nc(Cl)c(CO)n1Cc1ccc(-c2ccccc2-c2nn[nH]n2)cc1` [losartan], in data set [1], the “COL IV staining intensity in the posterior stroma vs vehicle treatment” value is recorded as “significantly different”. The “mean intensity units of collagen type IV in the anterior stroma compared to vehicle treatment” value in data set [1] is on record as “significantly decreased”. The “mean area of the SMA-positive posterior fibrotic area among DMR groups” value in data set [2] (DMR, oral losartan alone, one month) was “highest”. Moreover, the “mean SMA-positive posterior fibrotic area compared to the other DMR groups” value in data set [2] (DMR, topical 0.4 mg/ml six times a day) is on record as “significantly lower”. Also, in data set [2] (DMR, topical 0.4 mg/ml six times per day, one month), the “SMA-positive fibrotic zone in the posterior cornea” value is “marked decrease”. Besides, the “SMA-positive fibrosis in the posterior cornea” value in data set [2] (DMR, topical six times per day and oral three times per day, one month) is “decrease”. For the same compound, the “SMA-positive posterior corneal fibrosis in uninjured corneas” value in data set [2] (oral losartan three times a day) and in data set [2] (topical losartan six times a day) was “did not develop SMA-positive posterior corneal fibrosis” each time. The “collagen type IV production in the posterior stroma” value in data set [3] (oral losartan alone) is on record as “no significant effect”. In addition, the “collagen type IV localization in posterior stroma (IHC)” value in data set [3] (topical losartan alone) is “primarily detected adjacent to the posterior surfaces”. In addition, the “collagen type IV vs DMR corneas treated with topical losartan alone” value in data set [3] (setting [5]) is recorded as “not different”. Moreover, the “posterior stromal collagen type IV production compared to topical vehicle and oral vehicle (ImageJ intensity)” value in data set [3] (setting [5]) and in data set [3] (topical losartan) was “significantly decreased” in each case. Further, in data set [4], the “levels of TGF beta-1 in the posterior stroma or at the posterior stromal surface compared to vehicle-treated corneas” value is “No effect”.
